The source of these data is article PMC4684357, “Comparative Evaluation of the Antimicrobial Activity of Different Antimicrobial Peptides against a Range of Pathogenic Bacteria” (PLoS ONE, 2015).

Like-named read-outs stand apart in the source and are kept apart here. Residues, ends and D or L forms follow the SMILES beside them. No end group written: not given here.

Series [1] concerns ATCC25922 ΔrfaE. The format is cell-based, Escherichia coli. The conditions noted are these: E. coli ATCC25922 ΔrfaE; CLSI; triplicates. The text has this: (§1) The Yersinia ruckeri strain was kindly provided by Prof. Kurt Buchmann, University of Copenhagen, Faculty of Health and Medical Sciences, and the Flavobacterium psychrophilum strain was kindly provided by Prof. Inger Dalsgaard, DTU, Denmark. BW25113 is the Escherichia coli wild-type strain, a derivative of the F^-,λ^- E. coli K12 strain BD792 which was used in generating the KEIO collection. E. coli ATCC25922 is a clinical isolate, serotype O6 and is often used as control strain in antimicrobial susceptibility testing. All strains were grown in Mueller-Hinton-II medium, except L. monocytogenes which was grown in BHI medium and F. psychrophilum which was grown in TYES medium (Tryptone yeast extract plus salts). Incubation took place aerobically at 37°C, except for Y. ruckeri and A. salmonicida, which were grown aerobically at RT (20°C), C. jejuni NCTC11168 which was grown under microaerophilic conditions at 42°C and F. psychrophilum 1947 which was grown under aerobic conditions at 15°C. All plates were incubated for 18–20 hours, except the F. psychrophilum plates, which were incubated for 72 hours.
(§2) The minimum inhibitory concentrations (MICs) of the AMPs were measured in 96-well microtiter plates according to the Clinical and Laboratory Standards Institute (CLSI, formerly National Committee for Clinical Laboratory Standards [NCCLS]). Briefly, liquid Mueller-Hinton-II medium containing increasing concentrations of AMPs is inoculated with a defined number of cells (approx. 10^5 CFUs/ml) in 96-well microtiter plates (polypropylene), whereas each plate also includes a positive growth control and a negative control (sterile control). After incubation, the MIC is determined by the lowest concentration showing no visible growth. All plates were incubated for 18–20 hours, except the F. psychrophilum plates which were incubated for 72 hours.
(§3) Construction of knock-out mutants of E. coli ATCC25922 were constructed using the λ-Red recombinase gene replacement system. Primers for amplification of the npt gene of pKD4 are listed in S1 Table. The correct double-crossover and recombination event was confirmed by primers listed in S1 Table and by sequencing. Finally, the kanamycin cassette was removed.

Series [2] relates to ATCC25922 ΔrfaC. In kind it is cell-based, Escherichia coli. The conditions noted are these: E. coli ATCC25922 ΔrfaC; CLSI; triplicates.
From the text: as §1, §2, §3

In series [3] the test system is ATCC25922 ΔrfaG. The format is cell-based, Escherichia coli. The conditions noted are these: E. coli ATCC25922 ΔrfaG; CLSI; triplicates.
From the text: as §1, §2, §3

Series [4] deals with ATCC25922 ΔrfaF. In kind it is cell-based, Escherichia coli. The conditions noted are these: E. coli ATCC25922 ΔrfaF; CLSI; triplicates.
From the text: as §1, §2, §3

The test system of series [5] is E. coli ATCC25922. As to the method:
as §2, with “hours. […]” for “hours.”

The subject of series [6] is E. coli ATCC25922. In kind it is cell-based, Escherichia coli.
From the text: as §1
All plates were incubated for 18–20 hours, except the F. psychrophilum plates which were incubated for 72 hours.
All the MIC measurements were carried out in duplicate.

For series [7], the system named is BW25113 wild-type. In words: MIC in LPS backgrounds. In kind it is cell-based, Escherichia coli. The conditions noted are these: E. coli BW25113 wild-type; CLSI; triplicates.
From the text: as §1, §2

The test system of series [8] is BW25113 ΔrfaC. The format is cell-based, Escherichia coli. The conditions noted are these: E. coli BW25113 ΔrfaC; CLSI; triplicates.
From the text: as §1, §2

Series [9] relates to BW25113 ΔrfaG. In kind it is cell-based, Escherichia coli. The conditions noted are these: E. coli BW25113 ΔrfaG; CLSI; triplicates.
From the text: as §1, §2

Series [10] has as its system BW25113 ΔrfaE. The format is cell-based, Escherichia coli. The conditions noted are these: E. coli BW25113 ΔrfaE; CLSI; triplicates.
From the text: as §1, §2

Series [11] deals with BW25113 ΔrfaF. In kind it is cell-based, Escherichia coli. The conditions noted are these: E. coli BW25113 ΔrfaF; CLSI; triplicates.
From the text: as §1, §2

Series [12] relates to horse erythrocytes. In words: Cytotoxicity assay: haemoglobin release (hemolytic activity). The conditions noted are these: washed horse erythrocytes 10% (v/v) in PBS, 60 min 37°C, absorbance 540 nm, relative to full lysis by 0.2% Triton X-100, average ± SD of duplicates. In kind it is cell-based. As for the experimental part:
The cytotoxicity for each AMP was determined spectrophotometrically by measuring the haemoglobin release from horse erythrocytes. Briefly, fresh defibrinated horse blood was washed three times with PBS, centrifuged for 15 minutes at 1000g and resuspended at 10% (v/v) in PBS. Samples of the washed horse erythrocytes (100 μl) were transferred to a 96 well microtiter plate and mixed with 100 μl AMP solution. PBS was used as a negative control, and 0.2% TritonX-100 was used as a positive control. The microtiter plates were incubated for 60 minutes at 37°C and then centrifuged for 10 minutes at 1300g. The supernatants were transferred to a flat-bottom 96 well polystyrene microtiter plate and the haemoglobin release was monitored by measuring the absorbance at 540 nm. The percentage of hemolysis was calculated as 100 *(Asample−APBS)/(ATritonX-100 –APBS), where Asample is the experimental absorbance of the peptide sample, APBS is the control absorbance of untreated erythrocytes, and ATritonX-100 is the absorbance of 0.2% TritonX-100 lysed cells.

As for `CC[C@H](C)[C@H](NC(=O)[C@H](CCCCN)NC(=O)[C@H](CCCCN)NC(=O)[C@H](CC(C)C)NC(=O)[C@H](CCCCN)NC(=O)[C@H](CCC(=O)O)NC(=O)[C@H](CCCCN)NC(=O)[C@@H](NC(=O)[C@H](CCCCN)NC(=O)[C@H](CC(N)=O)NC(=O)[C@H](CCCNC(=N)N)NC(=O)[C@H](Cc1ccccc1)NC(=O)[C@H](CCCCN)NC(=O)[C@H](CCCNC(=N)N)NC(=O)[C@H](CC(C)C)NC(=O)[C@H](CCCNC(=N)N)NC(=O)[C@H](CCCCN)NC(=O)[C@H](CCCNC(=N)N)NC(=O)[C@H](CC(C)C)NC(=O)CN)[C@@H](C)CC)C(=O)NCC(=O)N[C@@H](CCC(N)=O)C(=O)N[C@@H](CCCCN)C(=O)N[C@H](C(=O)N[C@@H](CCC(N)=O)C(=O)NCC(=O)N[C@@H](CC(C)C)C(=O)N[C@@H](CC(C)C)C(=O)N1CCC[C@H]1C(=O)N[C@@H](CCCCN)C(=O)N[C@@H](CC(C)C)C(=O)N[C@@H](C)C(=O)N1CCC[C@H]1C(=O)N[C@@H](CCCNC(=N)N)C(=O)N[C@H](C(=O)N[C@@H](CC(=O)O)C(=O)N[C@@H](Cc1ccc(O)cc1)C(=O)O)[C@@H](C)O)[C@@H](C)CC` [Cap18] (H-GLRKRLRKFRNKIKEKLKKIGQKIQGLLPKLAPRTDY-OH), the “Antimicrobial Activity MIC” value in series [1] worked out at 2 µg/mL; in series [2] it was 2 µg/mL; in [3], 2 µg/mL; in series [4] it was 2 µg/mL; in [5], 8 µg/mL; in [6], 4 µg/mL. Also, the “Antimicrobial Activity MIC” value in series [7] is 4 to 8 µg/mL; in [8] it was 4 µg/mL; in series [9], 4 µg/mL; in series [10] it was 4 µg/mL; in series [11], 4 µg/mL.

`CC[C@H](C)[C@H](NC(=O)CNC(=O)[C@H](CCC(=O)O)NC(=O)[C@H](CO)NC(=O)[C@@H](NC(=O)[C@H](CCCNC(=N)N)NC(=O)[C@H](CCCCN)NC(=O)[C@H](CCCCN)NC(=O)[C@H](C)NC(=O)[C@H](CO)NC(=O)[C@H](CC(N)=O)NC(=O)[C@H](CCC(=O)O)NC(=O)[C@H](CC(C)C)NC(=O)[C@H](CCCCN)NC(=O)[C@H](CCCCN)NC(=O)[C@H](C)NC(=O)[C@@H](NC(=O)[C@H](CCCCN)NC(=O)[C@H](CO)NC(=O)[C@H](CC(C)C)NC(=O)[C@H](Cc1c[nH]c2ccccc12)NC(=O)[C@@H](N)CO)[C@@H](C)O)[C@@H](C)CC)C(=O)N[C@@H](C)C(=O)N[C@H](C(=O)N[C@@H](C)C(=O)N[C@H](C(=O)N[C@@H](CCC(N)=O)C(=O)NCC(=O)NCC(=O)N1CCC[C@H]1C(=O)N[C@@H](CCCNC(=N)N)C(=O)O)[C@@H](C)CC)[C@@H](C)CC` [Cecropin P1] (H-SWLSKTAKKLENSAKKRISEGIAIAIQGGPR-OH): the “Antimicrobial Activity MIC” value in series [1] is 8 µg/mL; in series [2], 8 µg/mL; in [3], 16 µg/mL; in series [4] it was 8 µg/mL; in series [5] it was 16 µg/mL; in series [6] it was 32 µg/mL. Further, the “Antimicrobial Activity MIC” value in series [7] was 16 to 32 µg/mL; in [8] it was 8 µg/mL; in series [9], 16 µg/mL; in series [10], 8 µg/mL; in [11], 4 µg/mL.

Consider `CC[C@H](C)[C@H](NC(=O)CN)C(=O)NCC(=O)N[C@@H](C)C(=O)N[C@H](C(=O)N[C@@H](CC(C)C)C(=O)N[C@@H](CCCCN)C(=O)N[C@H](C(=O)N[C@@H](CC(C)C)C(=O)N[C@H](C(=O)N[C@H](C(=O)NCC(=O)N[C@@H](CC(C)C)C(=O)N1CCC[C@H]1C(=O)N[C@@H](C)C(=O)N[C@@H](CC(C)C)C(=O)N[C@H](C(=O)N[C@@H](CO)C(=O)N[C@@H](Cc1c[nH]c2ccccc12)C(=O)N[C@H](C(=O)N[C@@H](CCCCN)C(=O)N[C@@H](CCCNC(=N)N)C(=O)N[C@@H](CCCCN)C(=O)N[C@@H](CCCNC(=N)N)C(=O)N[C@@H](CCC(N)=O)C(=O)N[C@@H](CCC(N)=O)C(N)=O)[C@@H](C)CC)[C@@H](C)CC)[C@@H](C)O)[C@@H](C)O)C(C)C)C(C)C` [Melittin, reference compound], for which the “Antimicrobial Activity MIC” value in series [1] was 2 µg/mL; in [2], 2 µg/mL; in [3], 4 µg/mL; in series [4], 2 µg/mL; in series [7], 16 to 32 µg/mL; in [8] it was 4 µg/mL. Also, the “Antimicrobial Activity MIC” value in series [9], in series [10] and in series [11] was 4 µg/mL throughout. In addition, in [12] (peptide 128 μg/ml), the “Hemolytic Activity” value is given as 110 ± 1%.

Take `CC[C@H](C)[C@H](NC(=O)[C@@H]1CCCN1C(=O)[C@H](CCCNC(=N)N)NC(=O)[C@@H]1CCCN1C(=O)[C@@H]1CCCN1C(=O)[C@@H](NC(=O)[C@@H]1CCCN1C(=O)[C@H](CCCNC(=N)N)NC(=O)[C@@H]1CCCN1C(=O)[C@H](CC(C)C)NC(=O)[C@H](Cc1ccc(O)cc1)NC(=O)[C@H](CO)NC(=O)CNC(=O)[C@H](CCCCN)NC(=O)[C@H](CC(=O)O)NC(=O)[C@@H](N)C(C)C)[C@@H](C)O)C(=O)N[C@@H](Cc1ccc(O)cc1)C(=O)N[C@@H](CC(N)=O)C(=O)N[C@@H](CCCNC(=N)N)C(=O)N[C@@H](CC(N)=O)C(=O)O` [Pyrrhocoricin] (H-VDKGSYLPRPTPPRPIYNRN-OH): the “Hemolytic Activity” value in series [12] (peptide 256 μg/ml) is 0 ± 0%.

As for “GLRKKFRKTRKRIQKLGRKIGKTGRKVWKAWREYGQIPYPCRI [Cap11]”, the “Antimicrobial Activity MIC” value in series [1] was 4 µg/mL; in series [2] it was 4 µg/mL; in series [3] it was 8 µg/mL; in [4], 4 µg/mL; in [5], 8 µg/mL; in series [6], 16 µg/mL. The “Antimicrobial Activity MIC” value in series [7], in [8], in series [9], in [10] and in series [11] was 8 µg/mL in each case.
